Results taken from US12606572B2, “Substituted heterocycles and uses thereof” (Kumquat Biosciences Inc., priority 2023, dated 2026).

What was measured:
KRAS WT = molecular target: T1, KRAS WT (Homo sapiens, UniProt P01116); experiment: HTRF assay, interaction of GST-tagged K-Ras with His-tagged hSOS1 (KRAS wildtype); assay type: biochemical; conditions: <500 nM, read-out: Inhibition of KRAS WT (IC50)
T1 construct: made in house; host or cells: E. coli BL21 (DE3)
From the text: (§1) This assay can be also used to assess a selective inhibition or reduction of signaling output of a mutant Ras protein relative to a wildtype, or relative to a different mutant Ras protein. For example, the equilibrium interaction of wildtype KRAS or K-Ras mutant (e.g., wildtype or a mutant thereof) with SOS1 (e.g., hSOS1) can be assessed as a proxy or an indication for the ability of a subject compound to bind and inhibit Ras protein. The HTRF assay detects from (i) a fluorescence resonance energy transfer (FRET) donor (e.g., antiGST-Europium) that is bound to GST-tagged K-Ras mutant to (ii) a FRET acceptor (e.g., anti-6His-XL665) bound to a His-tagged hSOS1.
(§2) The assay buffer can contain ˜5 mM HEPES pH 7.4, ˜150 mM NaCl, ˜1 mM DTT, 0.05% BSA and 0.0025% (v/v) Igepal. A Ras working solution is prepared in an assay buffer containing typically a suitable amount of the protein construct (e.g., GST-tagged K-Ras mutant) and the FRET donor (e.g., antiGST-Eu(K) from Cisbio, France). A SOS1 working solution is prepared in an assay buffer containing suitable amount of the protein construct (e.g., His-hSOS1) and the FRET acceptor (e.g., anti-6His-XL665 from Cisbio, France). A suitable amount of the protein construct will depend on the range of activity or range of IC50 values being detected or under investigation. For detecting an IC50 within a range of 500 nM, the protein constructs of the same range of molarity can be utilized.
(§3) A fixed volume of DMSO with or without test compound is transferred into a 384-well plate. Ras working solution is added to all wells of the test plate. SOS1 working solution is added to all wells except for those that are subsequently filled with inhibitor control solution. Upon incubation for about 10 minutes or longer, the fluorescence is measured with a M1000Pro plate reader (Tecan) using HTRF detection (excitation 337 nm, emission 1: 620 nm, emission 2: 665 nm). Compounds are tested in duplicate at different concentrations (for example, 10 μM, 2.5 μM, 0.63 μM, 0.16 μM, 0.04 μM, 0.01 μM test compound). The ratiometric data (i.e., emission 2 divided by emission 1) is used to calculate IC50 values against Ras using GraphPad Prism (GraphPad software). Signaling output measured in terms of IC50 values can be obtained and a ratio of IC50 against one mutant relative to another mutant can be calculated. For instance, a selective reduction of K-Ras G12S signaling output can be evidenced by a ratio greater than one. In particular, a selective reduction of K-Ras G12S signaling relative to K-Ras WT signaling is evidenced if the ratio of IC50 (against K-Ras WT) to IC50 (against K-Ras G12S) is greater than 1.

KRAS G12S = molecular target: T2, KRAS G12S (Homo sapiens, UniProt P01116, G12S); experiment: HTRF assay, interaction of GST-tagged K-Ras with His-tagged hSOS1 (KRAS G12S); assay type: biochemical; conditions: <500 nM, read-out: Inhibition of KRAS G12S (IC50)
T2 construct: made in house; host or cells: E. coli BL21 (DE3)
T2 sequence (P01116 1-188 isoform P01116-2 G12S): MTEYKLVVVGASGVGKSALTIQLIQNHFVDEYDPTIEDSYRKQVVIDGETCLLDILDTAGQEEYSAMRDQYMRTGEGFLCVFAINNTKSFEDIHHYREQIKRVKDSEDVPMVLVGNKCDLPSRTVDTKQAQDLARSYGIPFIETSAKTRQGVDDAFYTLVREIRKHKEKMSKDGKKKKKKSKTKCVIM
From the text: as §1, §2, §3

T1 sequence (P01116 1-188 isoform P01116-2): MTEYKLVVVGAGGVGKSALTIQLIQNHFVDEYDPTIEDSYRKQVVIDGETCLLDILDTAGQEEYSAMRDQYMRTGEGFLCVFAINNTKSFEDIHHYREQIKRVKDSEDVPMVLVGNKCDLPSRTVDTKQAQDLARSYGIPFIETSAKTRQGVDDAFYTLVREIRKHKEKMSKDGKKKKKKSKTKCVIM

| SMILES | IC50 (KRAS WT) [nM] | IC50 (KRAS G12S) [nM] |
| --- | --- | --- |
| C[C@@H]1CCOc2c(Cl)c(-c3ccc(F)c4sc(N)c(C#N)c34)c(F)c3nc(OC[C@@]45CCCN4C[C@H](F)C5)nc(c23)N1CC1CCCN1C(=O)n1ccnc1 (stereo partly drawn) [Compound 414, 4-((5R)-4-((1-(1H-imidazole-1-carbonyl)pyrrolidin-2-yl)methyl)-9-chloro-11-fluoro-2-(((2R,7aS)-2-fluorotetrahydro-1H-pyrrolizin-7a(5H)-yl)methoxy)-5-methyl-4,5,6,7-tetrahydro-[1,5]oxazocino[4,3,2-de]quinazolin-10-yl)-2-amino-7-fluorobenzo[b]thiophene-3-carbonitrile] | < 500 | < 500 |
| C[C@@H]1CCOc2c(Cl)c(-c3ccc(F)c4sc(N)c(C#N)c34)c(F)c3nc(OC[C@@]45CCCN4C[C@H](F)C5)nc(c23)N1CC1CCN(C(=O)n2ccnc2)C1 (stereo partly drawn) [Compound 417, 4-((5R)-4-((1-(1H-imidazole-1-carbonyl)pyrrolidin-3-yl)methyl)-9-chloro-11-fluoro-2-(((2R, 7aS)-2-fluorotetrahydro-1H-pyrrolizin-7a(5H)-yl)methoxy)-5-methyl-4,5,6,7-tetrahydro-[1,5]oxazocino [4,3,2-de]quinazolin-10-yl)-2-amino-7-fluorobenzo [b]thiophene-3-carbonitrile] | < 500 | < 500 |
| N#Cc1c(N)sc2c(F)ccc(-c3c(Cl)c4c5c(nc(OC[C@@]67CCCN6C[C@H](F)C7)nc5c3F)N(CC3CN(C(=O)/C=C/C5CC5)C3)CCO4)c12 [Compound 418, 2-amino-4-(8-chloro-4-((1-((E)-3-cyclopropylacryloyl)azetidin-3-yl)methyl)-10-fluoro-2-(((2R,7aS)-2-fluorotetrahydro-1H-pyrrolizin-7a(5H)-yl)methoxy)-5,6-dihydro-4H-[1,4]oxazepino [5,6,7-de]quinazolin-9-yl)-7-fluorobenzo[b]thiophene-3-carbonitrile] | < 500 | < 500 |
| C[C@H](O)[C@H]1COc2c(Cl)c(-c3ccc(F)c4sc(N)c(C#N)c34)c(F)c3nc(OC[C@@]45CCCN4C[C@H](F)C5)nc(c23)N1CC1CCN(C(=O)n2ccnc2)C1 (stereo partly drawn) [Compound 419, 4-((5R)-4-((1-(1H-imidazole-1-carbonyl)pyrrolidin-3-yl)methyl)-8-chloro-10-fluoro-2-(((2R,7aS)-2-fluorotetrahydro-1H-pyrrolizin-7a(5H)-yl)methoxy)-5-((S)-1-hydroxyethyl)-5,6-dihydro-4H-[1,4]oxazepino [5,6,7-de]quinazolin-9-yl)-2-amino-7-fluorobenzo[b] thiophene-3-carbonitrile] | < 500 | < 500 |
| N#Cc1c(N)sc2c(F)ccc(-c3c(Cl)c4c5c(nc(OC[C@@]67CCCN6C[C@H](F)C7)nc5c3F)N(CC3CN(C(=O)/C=C/C(F)F)C3)CCO4)c12 [Compound 423, 2-amino-4-(8-chloro-4-((1-((E)-4,4-difluorobut-2-enoyl)azetidin-3-yl)methyl)-10-fluoro-2-(((2R,7aS)-2-fluorotetrahydro-1H-pyrrolizin-7a (5H)-yl)methoxy)-5,6-dihydro-4H-[1,4]oxazepino[5,6,7-de]quinazolin-9-yl)-7-fluorobenzo[b]thiophene-3-carbonitrile] | < 500 | < 500 |
| C[C@H](O)[C@H]1COc2c(Cl)c(-c3ccc(F)c4sc(N)c(C#N)c34)c(F)c3nc(OC[C@@]45CCCN4C[C@H](F)C5)nc(c23)N1CC1CN(C(=O)n2ccnc2)C1 [Compound 427, 4-((5R)-4-((1-(1H-imidazole-1-carbonyl)azetidin-3-yl)methyl)-8-chloro-10-fluoro-2-(((2R,7aS)-2-fluorotetrahydro-1H-pyrrolizin-7a(5H)-yl)methoxy)-5-((S)-1-hydroxyethyl)-5,6-dihydro-4H-[1,4]oxazepino [5,6,7-de]quinazolin-9-yl)-2-amino-7-fluorobenzo[b] thiophene-3-carbonitrile] | < 500 | < 500 |
| C[C@H](O)[C@H]1COc2c(Cl)c(-c3ccc(F)c4sc(N)c(C#N)c34)c(F)c3nc(OC[C@@]45CCCN4C[C@H](F)C5)nc(c23)N1C1CC(N(C)C(=O)n2ccnc2)C1 (stereo partly drawn) [Compound 428, N-(3-((5R)-9-(2-amino-3-cyano-7-fluorobenzo[b]thiophen-4-yl)-8-chloro-10-fluoro-2-(((2R,7aS)-2-fluorotetrahydro-1H-pyrrolizin-7a(5H)-yl)methoxy)-5-((S)-1-hydroxyethyl)-5,6-dihydro-4H-[1,4]oxazepino [5,6,7-de]quinazolin-4-yl)cyclobutyl)-N-methyl-1H-imidazole-1-carboxamide] | < 500 | < 500 |
| Cc1cn(C(=O)N2CC[C@@H](N3C[C@H](C)Oc4nc(-c5cc(N)c(F)c(C)c5C(F)(F)F)c(F)c5nc(OC[C@@]67CCCN6C[C@H](F)C7)nc3c45)[C@H]2C)c(C)n1 [Compound 430, ((2R,3R)-3-((S)-5-(5-amino-4-fluoro-3-methyl-2-(trifluoromethyl)phenyl)-4-fluoro-2-(((2R,7aS)-2-fluorotetrahydro-1H-pyrrolizin-7a(5H)-yl)methoxy)-8-methyl-8,9-dihydro-10H-7-oxa-1,3,6,10-tetraazacyclohepta [de]naphthalen-10-yl)-2-methylpyrrolidin-1-yl)(2,4-dimethyl-1H-imidazol-1-yl)methanone] | < 500 | < 500 |
| C[C@@H]1[C@H](N2CCCc3nc(-c4ccc(F)c5sc(N)c(C#N)c45)c(F)c4nc(OC[C@@]56CCCN5C[C@H](F)C6)nc2c34)CCN1C(=O)n1cnc(Cl)n1 [Compound 433, 2-amino-4-(10-((2R,3R)-1-(3-chloro-1H-1,2,4-triazole-1-carbonyl)-2-methylpyrrolidin-3-yl)-4-fluoro-2-(((2R,7aS)-2-fluorotetrahydro-1H-pyrrolizin-7a(5H)-yl)methoxy)-7,8,9,10-tetrahydro-1,3,6,10-tetraazacyclohepta[de]naphthalen-5-yl)-7-fluorobenzo[b]thiophene-3-carbonitrile] | < 500 | < 500 |
| Cc1cn(C(=O)N2CC[C@@H](N3CCCCc4nc(-c5cc(N)c(F)c(C)c5C(F)(F)F)c(F)c5nc(OC[C@@]67CCCN6C[C@H](F)C7)nc3c45)[C@H]2C)c(C)n1 [Compound 438, ((2R,3R)-3-(5-(5-amino-4-fluoro-3-methyl-2-(trifluoromethyl)phenyl)-4-fluoro-2-(((2R,7aS)-2-fluorotetrahydro-1H-pyrrolizin-7a(5H)-yl)methoxy)-7,8,9,10-tetrahydro-11H-1,3,6,11-tetraazacycloocta[de]naphthalen-11-yl)-2-methylpyrrolidin-1-yl)(2,4-dimethyl-1H-imidazol-1-yl)methanone] | < 500 | < 500 |
| C/C(C#N)=C\C(=O)N1CC(CN2CCOc3c(Cl)c(-c4ccc(F)c5sc(N)c(C#N)c45)c(F)c4nc(OC[C@@]56CCCN5C[C@H](F)C6)nc2c34)C1 [Compound 439, 2-amino-4-(8-chloro-4-((1-((E)-3-cyanobut-2-enoyl)azetidin-3-yl)methyl)-10-fluoro-2-(((2R,7aS)-2-fluorotetrahydro-1H-pyrrolizin-7a(5H)-yl)methoxy)-5,6-dihydro-4H-[1,4]oxazepino[5,6,7-de]quinazolin-9-yl)-7-fluorobenzo [b]thiophene-3-carbonitrile] | < 500 | < 500 |
| N#CCC1([C@@H]2[C@H](CN3CCOc4c(Cl)c(-c5ccc(F)c6sc(N)c(C#N)c56)c(F)c5nc(OC[C@@]67CCCN6C[C@H](F)C7)nc3c45)CN2C(=O)n2ccnc2)CC1 [Compound 442, 2-amino-4-(8-chloro-4-(((2S,3R)-2-(1-(cyanomethyl)cyclopropyl)-1-(1H-imidazole-1-carbonyl)azetidin-3-yl)methyl)-10-fluoro-2-(((2R,7aS)-2-fluorotetrahydro-1H-pyrrolizin-7a(5H)-yl)methoxy)-5,6-dihydro-4H-[1,4]oxazepino [5,6,7-de]quinazolin-9-yl)-7-fluorobenzo[b]thiophene-3-carbonitrile] | < 500 | < 500 |
